Experimental data from patent US6737383B1, “Herbicidal oxadiazolidines” (priority 1999, dated 2004).

How the values were obtained:
soybean = assay: Test B pre/postemergence soybean; type: in vivo, Glycine max
How it was run: (§1)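 Test chemicals in a non-phytotoxic solvent mixture with surfactant were sprayed preemergence onto planted seeds and postemergence onto plants 2 to 18 cm tall (1- to 4-leaf stage). After twelve to sixteen days in a greenhouse, injury was visually rated against untreated controls from 0 (no effect) to 10 (complete control).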

bedstraw = assay: Test B pre/postemergence bedstraw; type: in vivo, Galium aparine
How it was run: as §1

cocklebur = assay: Test B pre/postemergence cocklebur; type: in vivo, Xanthium strumarium
How it was run: as §1

crabgrass = assay: Test B pre/postemergence crabgrass; type: in vivo, Digitaria sanguinalis
How it was run: as §1

wheat = assay: Test B pre/postemergence wheat; type: in vivo, Triticum aestivum
How it was run: as §1

corn = assay: Test B pre/postemergence corn; type: in vivo, Zea mays
How it was run: as §1

velvetleaf = assay: Test B pre/postemergence velvetleaf; type: in vivo, Abutilon theophrasti
How it was run: as §1

rape = assay: Test B pre/postemergence rape; type: in vivo, Brassica napus
How it was run: as §1

wild oat = assay: Test B pre/postemergence wild oat; type: in vivo, Avena fatua
How it was run: as §1

bamyardgrass = assay: Test B flood test barnyardgrass; type: in vivo, Echinochloa crus-galli
How it was run: (§2)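 Plants were grown to the 2-leaf stage before treatment with test chemical, then held in a greenhouse for twelve to sixteen days. Injury was visually rated against untreated controls on a 0–10 scale, where 0 is no effect and 10 is complete control.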

rice = assay: Test B flood test rice; type: in vivo, Oryza sativa
How it was run: as §2

duck salad = assay: Test B flood test duck salad; type: in vivo, Heteranthera limosa
How it was run: as §2

sugar beet = assay: Test B pre/postemergence sugar beet; type: in vivo, Beta vulgaris
How it was run: as §1

purple nutsedge = assay: Test B pre/postemergence purple nutsedge; type: in vivo, Cyperus rotundus
How it was run: as §1

blackgrass = assay: Test B pre/postemergence blackgrass; type: in vivo, Alopecurus myosuroides
How it was run: as §1

smallflower flatsedge = assay: Test B flood test smallflower flatsedge; type: in vivo, Cyperus difformis
How it was run: as §2

surinam grass = assay: Test B pre/postemergence surinam grass; type: in vivo, Brachiaria decumbens
How it was run: as §1

[1] = Postemergence, Rate 125 g/ha, scale of 0 to 10 where 0 is no effect and 10 is complete control
[2] = Preemergence, Rate 62 g/ha, scale of 0 to 10 where 0 is no effect and 10 is complete control
[3] = Preemergence, Rate 125 g/ha, 0 is no effect, 10 is complete control
[4] = Preemergence, Rate 250 g/ha, scale 0 to 10, 0 is no effect, 10 is complete control
[5] = Preemergence, Rate 500 g/ha, scale 0 to 10 (0 no effect, 10 complete control)
[6] = Rate 62 g/ha, Postemergence, scale of 0 to 10 where 0 is no effect and 10 is complete control
[7] = Rate 250 g/ha, Postemergence, scale 0 to 10, 0 is no effect, 10 is complete control
[8] = Rate 500 g/ha, Postemergence, scale 0 to 10
[9] = Postemergence (flood test species), Rate 125 g/ha, scale of 0 to 10 where 0 is no effect and 10 is complete control
[10] = Rate 62 g/ha, Postemergence section, flood test species, scale of 0 to 10 where 0 is no effect and 10 is complete control
[11] = Rate 250 g/ha, Postemergence (flood test), scale 0 to 10, 0 is no effect, 10 is complete control
[12] = Rate 500 g/ha, listed under Postemergence (flood test species), scale 0 to 10

CC(C)N(C(=O)n1oc(=O)n(-c2nc(Cl)sc2Cl)c1=O)c1ccc(F)cc1 [Compound 160]
0: Soybean plant response rating (soybean; [1]) | Soybean plant response rating (soybean; [2]) | Soybean plant response rating (0 to 10 scale) (soybean; [3]) | Soybean plant response rating (soybean; [4]) | Soybean plant response rating (soybean; [5]) | Soybean plant response rating (soybean; [6]) | Plant response rating, Soybean (soybean; [7]) | Soybean plant response rating (soybean; [8]) | Bedstraw plant response rating (bedstraw; [1]) | Bedstraw plant response rating (bedstraw; [2]) | Bedstraw plant response rating (0 to 10 scale) (bedstraw; [3]) | Bedstraw plant response rating (bedstraw; [4]) | Bedstraw plant response rating (bedstraw; [5]) | Bedstraw plant response rating (bedstraw; [6]) | Plant response rating, Bedstraw (bedstraw; [7]) | Bedstraw plant response rating (bedstraw; [8]) | Cocklebur plant response rating (cocklebur; [1]) | Cocklebur plant response rating (cocklebur; [2]) | Cocklebur plant response rating (0 to 10 scale) (cocklebur; [3]) | Cocklebur plant response rating (cocklebur; [4]) | Cocklebur plant response rating (cocklebur; [5]) | Cocklebur plant response rating (cocklebur; [6]) | Plant response rating, Cocklebur (cocklebur; [7]) | Cocklebur plant response rating (cocklebur; [8]) | Crabgrass plant response rating (crabgrass; [1]) | Crabgrass plant response rating (crabgrass; [2]) | Crabgrass plant response rating (0 to 10 scale) (crabgrass; [3]) | Crabgrass plant response rating (crabgrass; [4]) | Crabgrass plant response rating (crabgrass; [5]) | Crabgrass plant response rating (crabgrass; [6]) | Plant response rating, Crabgrass (crabgrass; [7]) | Crabgrass plant response rating (crabgrass; [8]) | Wheat plant response rating (wheat; [2]) | Wheat plant response rating (0 to 10 scale) (wheat; [3]) | Wheat plant response rating (wheat; [4]) | Wheat plant response rating (wheat; [5]) | Plant response rating, Wheat (wheat; [7]) | Wheat plant response rating (wheat; [8]) | Corn plant response rating (corn; [1]) | Corn plant response rating (corn; [2]) | Corn plant response rating (0 to 10 scale) (corn; [3]) | Corn plant response rating (corn; [4]) | Corn plant response rating (corn; [5]) | Corn plant response rating (corn; [6]) | Plant response rating, Corn (corn; [7]) | Corn plant response rating (corn; [8]) | Velvetleaf plant response rating (velvetleaf; [2]) | Velvetleaf plant response rating (0 to 10 scale) (velvetleaf; [3]) | Velvetleaf plant response rating (velvetleaf; [4]) | Velvetleaf plant response rating (velvetleaf; [5]) | Plant response rating, Velvetleaf (velvetleaf; [7]) | Velvetleaf plant response rating (velvetleaf; [8]) | Rape plant response rating (rape; [1]) | Rape plant response rating (rape; [2]) | Rape plant response rating (0 to 10 scale) (rape; [3]) | Rape plant response rating (rape; [4]) | Rape plant response rating (rape; [5]) | Rape plant response rating (rape; [6]) | Plant response rating, Rape (rape; [7]) | Rape plant response rating (rape; [8]) | Wild oats plant response rating (wild oat; [2]) | Wild oats plant response rating (0 to 10 scale) (wild oat; [3]) | Wild oats plant response rating (wild oat; [4]) | Wild oats plant response rating (wild oat; [5]) | Plant response rating, Wild oats (wild oat; [7]) | Wild oats plant response rating (wild oat; [8]) | Barnyardgrass plant response rating (bamyardgrass; [9]) | Barnyardgrass plant response rating (bamyardgrass; [10]) | Plant response rating, Barnyardgrass (bamyardgrass; [11]) | Barnyardgrass plant response rating (bamyardgrass; [12]) | Rice plant response rating (rice; [9]) | Rice plant response rating (rice; [10]) | Plant response rating, Rice (rice; [11]) | Rice plant response rating (rice; [12]) | Ducksalad plant response rating (duck salad; [9]) | Ducksalad plant response rating (duck salad; [10]) | Plant response rating, Ducksalad (duck salad; [11]) | Ducksalad plant response rating (duck salad; [12]) | Sugarbeets plant response rating (sugar beet; [1]) | Sugarbeets plant response rating (sugar beet; [2]) | Sugarbeets plant response rating (0 to 10 scale) (sugar beet; [3]) | Sugarbeets plant response rating (sugar beet; [4]) | Sugarbeets plant response rating (sugar beet; [5]) | Sugarbeets plant response rating (sugar beet; [6]) | Plant response rating, Sugarbeets (sugar beet; [7]) | Sugarbeets plant response rating (sugar beet; [8]) | Nutsedge plant response rating (purple nutsedge; [1]) | Nutsedge plant response rating (purple nutsedge; [2]) | Nutsedge plant response rating (0 to 10 scale) (purple nutsedge; [3]) | Nutsedge plant response rating (purple nutsedge; [4]) | Nutsedge plant response rating (purple nutsedge; [5]) | Nutsedge plant response rating (purple nutsedge; [6]) | Plant response rating, Nutsedge (purple nutsedge; [7]) | Nutsedge plant response rating (purple nutsedge; [8]) | Blackgrass plant response rating (blackgrass; [1]) | Blackgrass plant response rating (blackgrass; [2]) | Blackgrass plant response rating (0 to 10 scale) (blackgrass; [3]) | Blackgrass plant response rating (blackgrass; [4]) | Blackgrass plant response rating (blackgrass; [5]) | Blackgrass plant response rating (blackgrass; [6]) | Plant response rating, Blackgrass (blackgrass; [7]) | Blackgrass plant response rating (blackgrass; [8]) | S. Flatsedge plant response rating (smallflower flatsedge; [9]) | S. Flatsedge plant response rating (smallflower flatsedge; [10]) | Plant response rating, S. Flatsedge (smallflower flatsedge; [11]) | S. Flatsedge plant response rating (smallflower flatsedge; [12]) | B. signalgrass plant response rating (surinam grass; [1]) | B. signalgrass plant response rating (surinam grass; [2]) | B. signalgrass plant response rating (0 to 10 scale) (surinam grass; [3]) | B. signalgrass plant response rating (surinam grass; [4]) | B. signalgrass plant response rating (surinam grass; [5]) | B. signalgrass plant response rating (surinam grass; [6]) | Plant response rating, B. signalgrass (surinam grass; [7]) | B. signalgrass plant response rating (surinam grass; Rate 500 g/ha, Postemergence, scale 0 to 10, 0 no effect, 10 complete control)
